This is an account of results in patent publication US9499550B2 (BRISTOL-MYERS SQUIBB COMPANY, priority 2012, dated 2016).

A word on the EC50: it is the midpoint of the concentration-response curve.

The subject of assay [1] is HCV genotype 1b (Con1) replicon in HUH-7 cells. Kind of assay: HCV replicon luciferase reporter assay, genotype 1b. In kind it is cell-based. The following applies: Hepatitis C virus, Huh-7, 72 h, HCV genotype 1b replicon luciferase, 3 days incubation, read-out: LE_1b (EC50, range). The gist of the method: (§1)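 Replicon inhibition for both genotypes was measured as Renilla luciferase signal (EnduRen, 7.5 μM final, 2 h) after 3-day, 37° C exposure of replicon-bearing HUH-7 cells in 4% FCS DMEM, 0.5% DMSO. The 1b construct carries S1179I; the 1a H77 construct carries P1496L and S2204I. Twenty-point, 3-fold dilutions were fitted four-parametrically for EC50, and CC50 was taken from multiplexed Cell Titer-Blue.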
Background: A replicon is a self-replicating genome or part of one, used to study replication in cells.

The test system of assay [2] is HCV genotype 1a (H77 strain) replicon in HUH-7 cells. Kind of assay: HCV replicon luciferase reporter assay, genotype 1a. In kind it is cell-based. To be noted: Hepatitis C virus, Huh-7, 72 h, HCV genotype 1a replicon luciferase, 3 days incubation, read-out: LE_1a (EC50, range). Summed up:
as §1

On to `CC[C@@H]1C[C@H](C)CC/C=C\[C@@H]2C[C@@]2(C(=O)NS(=O)(=O)C2(C)CC2)NC(=O)[C@@H]2C[C@@H](Oc3nccc4cc(OC)c(F)cc34)CN2C(=O)[C@H]1NC(=O)OC(C)(C)C(C)(F)F` [Compound 5435, 3,3-difluoro-2-methylbutan-2-yl((2R,6S,7R,9R,13aS,14aR,16aS,Z)-7-ethyl-2-((7-fluoro-6-methoxyisoquinolin-1-yl)oxy)-9-methyl-14a-(((1-methylcyclopropyl)sulfonyl)carbamoyl)-5,16-dioxo-1,2,3,5,6,7,8,9,10,11,13a,14,14a,15,16,16a-hexadecahydrocyclopropa[e]pyrrolo[1,2-a][1,4]diazacyclopentadecin-6-yl)carbamate], for which the EC50 in assay [1] and in assay [2] was 1.01 to 5 nM throughout.

For `CC[C@@H]1C[C@H](C)CC/C=C\[C@@H]2C[C@@]2(C(=O)NS(=O)(=O)C2(C)CC2)NC(=O)[C@@H]2C[C@@H](Oc3ncc(OC)c4ccccc34)CN2C(=O)[C@H]1NC(=O)OC(C)(C)C(C)(F)F` [Compound 5437, 3,3-difluoro-2-methylbutan-2-yl((2R,6S,7R,9R,13aS,14aR,16aS,Z)-7-ethyl-2-((4-methoxyisoquinolin-1-yl)oxy)-9-methyl-14a-(((1-methylcyclopropyl)sulfonyl)carbamoyl)-5,16-dioxo-1,2,3,5,6,7,8,9,10,11,13a,14,14a,15,16,16a-hexadecahydrocyclopropa[e]pyrrolo[1,2-a][1,4]diazacyclopentadecin-6-yl)carbamate], the EC50 was 0.1 to 0.5 nM in assay [1] and 1.01 to 5 nM in assay [2].

As for `CC[C@@H]1C[C@H](C)CC/C=C\[C@@H]2C[C@@]2(C(=O)NS(=O)(=O)C2CC2)NC(=O)[C@@H]2C[C@@H](Oc3ncc(OC)c4ccccc34)CN2C(=O)[C@H]1NC(=O)OC(C)(C)C(C)(F)F` [Compound 5439, 3,3-difluoro-2-methylbutan-2-yl((2R,6S,7R,9R,13aS,14aR,16aS,Z)-14a-((cyclopropylsulfonyl)carbamoyl)-7-ethyl-2-((4-methoxyisoquinolin-1-yl)oxy)-9-methyl-5,16-dioxo-1,2,3,5,6,7,8,9,10,11,13a,14,14a,15,16,16a-hexadecahydrocyclopropa[e]pyrrolo[1,2-a][1,4]diazacyclopentadecin-6-yl)carbamate], the EC50 in assay [1] lay in the range of 0.1 to 0.5 nM; in assay [2], 0.51 to 1 nM.

On to `CC[C@@H]1C[C@H](C)CC/C=C\[C@@H]2C[C@@]2(C(=O)NS(=O)(=O)C2(CF)CC2)NC(=O)[C@@H]2C[C@@H](Oc3ncc(N4CCOCC4)c4ccccc34)CN2C(=O)[C@H]1NC(=O)OC(C)(C)C` [Compound 5441, tert-butyl ((2R,6S,7R,9R,13aS,14aR,16aS,Z)-7-ethyl-14a-(((1-(fluoromethyl)cyclopropyl)sulfonyl)carbamoyl)-9-methyl-2-((4-morpholinoisoquinolin-1-yl)oxy)-5,16-dioxo-1,2,3,5,6,7,8,9,10,11,13a,14,14a,15,16,16a-hexadecahydrocyclopropa[e]pyrrolo[1,2-a][1,4]diazacyclopentadecin-6-yl)carbamate], for which the concentration giving a half-maximal response (EC50) in assay [1] and in assay [2] was 1.01 to 5 nM each time.

Take `C[C@@H]1CC/C=C\[C@@H]2C[C@@]2(C(=O)NS(=O)(=O)C2(CF)CC2)NC(=O)[C@@H]2C[C@@H](Oc3ncc(N4CCOCC4)c4ccccc34)CN2C(=O)[C@@H](NC(=O)OC(C)(C)C)[C@H](C)C1` [Compound 5443, tert-butyl ((2R,6S,7R,9R,13aS,14aR,16aS,Z)-14a-(((1-(fluoromethyl)cyclopropyl)sulfonyl)carbamoyl)-7,9-dimethyl-2-((4-morpholinoisoquinolin-1-yl)oxy)-5,16-dioxo-1,2,3,5,6,7,8,9,10,11,13a,14,14a,15,16,16a-hexadecahydrocyclopropa[e]pyrrolo[1,2-a][1,4]diazacyclopentadecin-6-yl)carbamate]: the EC50 lay in the range of 0.51 to 1 nM in assay [1] and 1.01 to 5 nM in assay [2].

Regarding `CC[C@@H]1C[C@H](C)CC/C=C\[C@@H]2C[C@@]2(C(=O)NS(=O)(=O)C2(CF)CC2)NC(=O)[C@@H]2C[C@@H](Oc3ncc(N4CCOCC4)c4ccccc34)CN2C(=O)[C@H]1NC(=O)OC(C)(C)C(F)(F)F` [Compound 5445, 1,1,1-trifluoro-2-methylpropan-2-yl((2R,6S,7R,9R,13aS,14aR,16aS,Z)-7-ethyl-14a-(((1-(fluoromethyl)cyclopropyl)sulfonyl)carbamoyl)-9-methyl-2-((4-morpholinoisoquinolin-1-yl)oxy)-5,16-dioxo-1,2,3,5,6,7,8,9,10,11,13a,14,14a,15,16,16a-hexadecahydrocyclopropa[e]pyrrolo[1,2-a][1,4]diazacyclopentadecin-6-yl)carbamate], the EC50 in assay [1] and in assay [2] was 1.01 to 5 nM in each case.

Turning to `CC[C@@H]1C[C@H](C)CC/C=C\[C@@H]2C[C@@]2(C(=O)NS(=O)(=O)C2(CF)CC2)NC(=O)[C@@H]2C[C@@H](Oc3ncc(N4CCOCC4)c4ccccc34)CN2C(=O)[C@H]1NC(=O)OC(C)(C)C(C)(F)F` [Compound 5447, 3,3-difluoro-2-methylbutan-2-yl((2R,6S,7R,9R,13aS,14aR,16aS,Z)-7-ethyl-14a-(((1-(fluoromethyl)cyclopropyl)sulfonyl)carbamoyl)-9-methyl-2-((4-morpholinoisoquinolin-1-yl)oxy)-5,16-dioxo-1,2,3,5,6,7,8,9,10,11,13a,14,14a,15,16,16a-hexadecahydrocyclopropa[e]pyrrolo[1,2-a][1,4]diazacyclopentadecin-6-yl)carbamate], the EC50 in assay [1] and in assay [2] was 1.01 to 5 nM each time.

For `C[C@@H]1CC/C=C\[C@@H]2C[C@@]2(C(=O)NS(=O)(=O)C2(CF)CC2)NC(=O)[C@@H]2C[C@@H](Oc3ncc(N4CCOCC4)c4ccccc34)CN2C(=O)[C@@H](NC(=O)OC(C)(C)C(F)(F)F)[C@H](C)C1` [Compound 5449, 1,1,1-trifluoro-2-methylpropan-2-yl((2R,6S,7R,9R,13aS,14aR,16aS,Z)-14a-(((1-(fluoromethyl)cyclopropyl)sulfonyl)carbamoyl)-7,9-dimethyl-2-((4-morpholinoisoquinolin-1-yl)oxy)-5,16-dioxo-1,2,3,5,6,7,8,9,10,11,13a,14,14a,15,16,16a-hexadecahydrocyclopropa[e]pyrrolo[1,2-a][1,4]diazacyclopentadecin-6-yl)carbamate], the values for the EC50 in assay [1] and in assay [2] were 0.51 to 1 nM and 1.01 to 5 nM, respectively.

`C[C@@H]1CC/C=C\[C@@H]2C[C@@]2(C(=O)NS(=O)(=O)C2(CF)CC2)NC(=O)[C@@H]2C[C@@H](Oc3ncc(N4CCOCC4)c4ccccc34)CN2C(=O)[C@@H](NC(=O)OC(C)(C)C(C)(F)F)[C@H](C)C1` [Compound 5451, 3,3-difluoro-2-methylbutan-2-yl((2R,6S,7R,9R,13aS,14aR,16aS,Z)-14a-(((1-(fluoromethyl)cyclopropyl)sulfonyl)carbamoyl)-7,9-dimethyl-2-((4-morpholinoisoquinolin-1-yl)oxy)-5,16-dioxo-1,2,3,5,6,7,8,9,10,11,13a,14,14a,15,16,16a-hexadecahydrocyclopropa[e]pyrrolo[1,2-a][1,4]diazacyclopentadecin-6-yl)carbamate]: the concentration giving a half-maximal response (EC50) in assay [1] and in assay [2] was 1.01 to 5 nM in each case.

As for `[2H]C([2H])([2H])C(OC(=O)N[C@@H]1C(=O)N2C[C@H](Oc3ncc(OC)c4ccc(F)cc34)C[C@H]2C(=O)N[C@]2(C(=O)NS(=O)(=O)C3(C)CC3)C[C@H]2/C=C\CC[C@@H](C)C[C@H]1CC)(C([2H])([2H])[2H])C(F)(F)F` [Compound 5453], the 50% effective concentration (EC50) in assay [1] was 0.51 to 1 nM; in assay [2] it was 1.01 to 5 nM.

As for `CC[C@@H]1C[C@H](C)CC/C=C\[C@@H]2C[C@@]2(C(=O)NS(=O)(=O)C2(C)CC2)NC(=O)[C@@H]2C[C@@H](Oc3ncc(OC)c4ccc(F)cc34)CN2C(=O)[C@H]1NC(=O)OC(C)(C)C(C)(F)F` [Compound 5455, 3,3-difluoro-2-methylbutan-2-yl((2R,6S,7R,9R,13aS,14aR,16aS,Z)-7-ethyl-2-((7-fluoro-4-methoxyisoquinolin-1-yl)oxy)-9-methyl-14a-(((1-methylcyclopropyl)sulfonyl)carbamoyl)-5,16-dioxo-1,2,3,5,6,7,8,9,10,11,13a,14,14a,15,16,16a-hexadecahydrocyclopropa[e]pyrrolo[1,2-a][1,4]diazacyclopentadecin-6-yl)carbamate], the EC50 in assay [1] was 0.1 to 0.5 nM; in assay [2], 1.01 to 5 nM.

For the compound `CC[C@@H]1C[C@H](C)CC/C=C\[C@@H]2C[C@@]2(C(=O)NS(=O)(=O)C2(C)CC2)NC(=O)[C@@H]2C[C@@H](Oc3ncc(N4CCOCC4)c4ccccc34)CN2C(=O)[C@H]1NC(=O)OC(C)(C)C(C)(F)F` [Compound 5457, 3,3-difluoro-2-methylbutan-2-yl((2R,6S,7R,9R,13aS,14aR,16aS,Z)-7-ethyl-9-methyl-14a-(((1-methylcyclopropyl)sulfonyl)carbamoyl)-2-((4-morpholinoisoquinolin-1-yl)oxy)-5,16-dioxo-1,2,3,5,6,7,8,9,10,11,13a,14,14a,15,16,16a-hexadecahydrocyclopropa[e]pyrrolo[1,2-a][1,4]diazacyclopentadecin-6-yl)carbamate], the EC50 in assay [1] fell in the range of 0.51 to 1 nM; in assay [2], 1.01 to 5 nM.

In the case of `C[C@@H]1CC/C=C\[C@@H]2C[C@@]2(C(=O)NS(=O)(=O)C2(C)CC2)NC(=O)[C@@H]2C[C@@H](Oc3ncc(N4CCOCC4)c4ccccc34)CN2C(=O)[C@@H](NC(=O)OC(C)(C)C(C)(F)F)[C@H](C)C1` [Compound 5459, 3,3-difluoro-2-methylbutan-2-yl((2R,6S,7R,9R,13aS,14aR,16aS,Z)-7,9-dimethyl-14a-(((1-methylcyclopropyl)sulfonyl)carbamoyl)-2-((4-morpholinoisoquinolin-1-yl)oxy)-5,16-dioxo-1,2,3,5,6,7,8,9,10,11,13a,14,14a,15,16,16a-hexadecahydrocyclopropa[e]pyrrolo[1,2-a][1,4]diazacyclopentadecin-6-yl)carbamate], the EC50 in assay [1] and in assay [2] was 1.01 to 5 nM each time.
